In patent EP1224486B1, “USE OF DOUBLE-QUANTUM 1H-NMR SPECTROSCOPY FOR THE IDENTIFICATION OF LIGANDS INTERACTING WITH TARGET BIOMOLECULES” (Pharmacia Italia S.p.A., priority 1999, dated 2001):
Non-standard residues stand in square brackets, D forms with d. Residues, ends and D or L forms follow the SMILES beside them. pY = N[C@@H](Cc1ccc(OP(=O)(O)O)cc1)C(=O)O

Legend:
Grb2-SH2 domain [1] = target: T1, Grb2-SH2 domain (Homo sapiens, UniProt P62993); test: 2D 1H double-quantum (DQ) NMR screening of compound mixtures with and without the protein; assay type: binding; settings: 25°C, pH 6.2; for identification as ligand by comparison of 2D DQ spectra and 2D DQ difference spectrum: mixture 2, 300 µM each compound, 50 µM protein (6:1)
T1 construct: The SH2 domain of Grb2 was expressed in E. coli as GST fusion proteins; GST (cleaved yes); made in house; host or cells: E. coli
T1 sequence (P62993 60-152 limits assumed): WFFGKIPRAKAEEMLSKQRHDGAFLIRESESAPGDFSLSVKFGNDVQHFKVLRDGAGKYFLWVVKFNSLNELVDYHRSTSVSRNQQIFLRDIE
Method: The feasibility of the invention in identifying ligands was tested with mixtures of compounds against the Grb2-SH2 domain. […] Figure 2 illustrates the DQ fingerprint region of a compound mixture (mixture 1) recorded with the pulse sequence of Figure 1a in the absence (a) and in the presence (b) of the protein. […] The NH protein resonances are not visible in Figure 2 (b) due to their short T (SQ)/(2) [formula] and T^DQ and the lower protein concentration (50 µM). The protein aromatic resonances have a longer T (SQ)/(2) [formula] and T^DQ compared to the amide resonances and their presence in the DQ spectrum may interfere with the observation of the ligand signals. Figure 3(a) illustrates the aromatic region of the 2D relaxation weighted DQ spectrum for mixture 1. Figures 3 (b) and (c) depict the same spectral region of the 2D DQ and relaxation weighted DQ spectrum of mixture 1 in the presence of the Grb2 SH2 domain, respectively. […] The large linewidth of all the protein resonances and the antiphase character of the DQ multiplets along ω2 results in complete cancellation of the positive and negative lobes. […] Only the compound resonances that display changes in intensity or chemical shift in the presence of the protein will be visible in the difference spectrum.
All the spectra were acquired at 25°C with the pulse sequences of Figure 1 using a Varian Inova 600 MHz spectrometer equipped with a 5 mm triple-resonance inverse probe and actively shielded x, y, and z- gradient coils. The DQ spectra were collected using 8 to 32 transients for each of the 256 t1 increments (128 t1 values for both the echo and antiecho pathway selections) and with 2048 points in t2. The data were multiplied with a cosine window function in both dimensions prior to the Fourier transformation.
The excitation DQ period τ was 42 ms long and the angle β of the detection pulse was set to 45° and 135° for the antiecho and echo coherence pathway selection, respectively. The coherence selection gradients G1 to G3 were set at the magic angle using only the x and z components of the gradients. The first two PFGs applied at the beginning and end of the excitation double-quantum period were weak gradients for radiation damping suppression. The 2D spectral differencing was performed with the software provided by Varian. The scaling factor used in the examples reported here was -1. However it can be adjusted manually for allowing small variations in concentration of the protein-ligand mixture and ligand mixture solutions.

Grb2-SH2 domain [2] = test: 2D 1H double-quantum NMR screening of compound mixtures for ligand binding; settings: mixture 2, each compound 300 µM, protein 50 µM (6:1), 25°C, pH 6.2
Text: From a practical point of view, the steps involved in the detection of binding are preferably the following: • a) mixing together from 1 to n chemical compounds not interacting with each other; • b) recording a two-dimensional ^1H DQ or DQC (refocussed or not) relaxation weighted DQ spectrum (preferentially version with PFG) for the said compound mixture in the absence of the target biomolecule; • c) mixing the said compound mixture with the target biomolecule where each of the molecules comprising the mixture is preferably present at a molar ratio to the target biomolecule of about 1:1 to about 20:1 • d) recording a two-dimensional ^1H DQ or DQC (refocussed or not) relaxation weighted DQ spectrum (preferentially version with PFG) for the said compound mixture in the presence of the target biomolecule; • e) comparing the spectra recorded in steps b) and d) to detect which, if any of the chemical entities of the mixture, has interacted with the target biomolecule; and, optionally • f) recording a two-dimensional ^1H DQ or DQC (refocussed or not) relaxation weighted DQ spectrum (preferentially version with PFG) for each of the compounds which have been detected in step (e) above, with and without the target protein.
The feasibility of the invention in identifying ligands was tested with mixtures of compounds against the Grb2-SH2 domain. […]

Molecule	identification as ligand by comparison of 2D DQ spectra and 2D DQ difference spectrum (Grb2-SH2 domain [1])	other results
Ac-Tyr-Val-Asn-Val-OH (Ac-YVNV-OH)	do not interact with the protein	–
c1ccc2[nH]ccc2c1 [Indole, indole]	–	identification as ligand (2D DQ spectra and 2D DQ difference spectrum with/without protein) (Grb2-SH2 domain [2]): do not interact with the protein
Ac-Tyr(PO3H2)-Val-NH-CH2-CH2-CONH2	potent ligand	–
Ac-(N-Me)Phe(p-CH2PO3H2)-Val-Asn-NH-CH2-CH(CH3)2	–	identification as ligand by comparison of 2D DQ spectra (Grb2-SH2 domain [1]; mixture 1, 100 µM each compound, 50 µM protein (2:1)): ligand for Grb2-SH2
CC(=O)N[C@@H](Cc1ccc(OP(=O)(O)O)cc1)C(=O)N[C@H](C(N)=O)C(C)C [Ac-Tyr(PO3H2)-Val-NH2] (Ac-[pY]-Val-NH2)	potential very weak ligand	identification as ligand by comparison of 2D DQ spectra and 2D DQ difference spectrum (Grb2-SH2 domain [1]; listed as compound B): possible weak interaction
